Assay [1] relates to p21 induction in HCT116 cells. Briefly: p21 induction in HCT116 cells. It counts as cell-based. The note with it: Homo sapiens, HCT-116, 24 h, HCT116 cells, 24 h compound incubation; read-out: P21_EC50. The method, boiled down:
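HCT116 cells, 2,000/well, treated 24 h at 37 °C with 11-point compound dilutions in duplicate. Fixed, then immunostained for p21 and GAPDH and read by near-IR imaging at 800/700 nm. Normalized to DMSO (low) and reference WRN inhibitor (high) controls; EC50 from non-linear regression.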

The target in assay [2] is WRN (BV08), human Werner helicase (Uniprot Q14191, amino acids 517-1235 with L1074F point mutation) (Homo sapiens (Human), UniProt Q14191, L1074F). Briefly: WRN (BV08) ADP-Glo assay. It counts as biochemical. The note with it: class symbols A-E, read-out: ADP-Glo_hWRN_IC50.
Sequence of WRN (BV08), human Werner helicase (Uniprot Q14191, amino acids 517-1235 with L1074F point mutation) (Q14191 other isoform, or with tags, fused parts or gaps L1074F (already in the parent)): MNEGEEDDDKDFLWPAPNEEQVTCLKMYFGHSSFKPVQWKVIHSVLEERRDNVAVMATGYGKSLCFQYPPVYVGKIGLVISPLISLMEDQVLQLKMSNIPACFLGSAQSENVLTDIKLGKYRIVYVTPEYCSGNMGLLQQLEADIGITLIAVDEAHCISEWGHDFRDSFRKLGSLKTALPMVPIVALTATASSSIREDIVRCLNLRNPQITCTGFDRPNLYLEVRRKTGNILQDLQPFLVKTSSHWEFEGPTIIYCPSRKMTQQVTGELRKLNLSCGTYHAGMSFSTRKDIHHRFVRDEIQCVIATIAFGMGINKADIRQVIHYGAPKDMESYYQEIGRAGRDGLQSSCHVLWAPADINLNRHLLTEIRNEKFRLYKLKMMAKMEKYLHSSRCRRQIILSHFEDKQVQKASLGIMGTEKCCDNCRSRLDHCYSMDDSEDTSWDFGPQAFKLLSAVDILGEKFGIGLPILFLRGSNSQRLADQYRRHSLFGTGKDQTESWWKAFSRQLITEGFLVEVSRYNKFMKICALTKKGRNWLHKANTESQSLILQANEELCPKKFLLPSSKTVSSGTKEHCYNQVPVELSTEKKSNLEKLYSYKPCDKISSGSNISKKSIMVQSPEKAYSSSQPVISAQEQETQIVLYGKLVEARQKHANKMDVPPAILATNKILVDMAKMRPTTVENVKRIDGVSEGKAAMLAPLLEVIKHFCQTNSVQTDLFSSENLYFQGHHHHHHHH

Molecules are shown by their SMILES.

For `CCc1c(N2CCN(C(=O)c3ncnc(C)c3O)[C@H]3CC[C@@H]32)c(=O)c2nc(N3CCNCC3)cnc2n1CC(=O)Nc1ccc(C(F)(F)F)cc1Cl` [I-263, N-[2-chloro-4-(trifluoromethyl)phenyl]-2-{6-ethyl-7-[(1S,6S)-5-(5-hydroxy-6-methylpyrimidine-4-carbonyl)-2,5-diazabicyclo[4.2.0]octan-2-yl]-8-oxo-2-(piperazin-1-yl)-5H,8H-pyrido[2,3-b]pyrazin-5-yl}acetamide], the EC50 in assay [1] was over 5000 nM. Moreover, in assay [2], the IC50 is 5 to 50 nM.

For `CCc1c(N2CCN(C(=O)c3ncnc(C)c3O)CC2)c(=O)c2nc(OC(F)F)cnc2n1CC(=O)Nc1ccc(C(F)(F)F)cc1Cl` [I-26, N-(2-chloro-4-(trifluoromethyl)phenyl)-2-(2-(difluoromethoxy)-6-ethyl-7-(4-(5-hydroxy-6-methylpyrimidine-4-carbonyl)piperazin-1-yl)-8-oxopyrido[2,3-b]pyrazin-5(8H)-yl)acetamide], the EC50 in assay [1] is over 5000 nM. Also, the IC50 in assay [2] was 100 to 500 nM.

On to `CCc1c(N2CCN(C(=O)c3ncnc(C)c3O)CC2)c(=O)c2nc(N3CCC34COC4)cnc2n1CC(=O)Nc1ccc(C(F)(F)F)cc1Cl` [I-207, N-[2-chloro-4-(trifluoromethyl)phenyl]-2-{6-ethyl-7-[4-(5-hydroxy-6-methylpyrimidine-4-carbonyl)piperazin-1-yl]-2-{6-oxa-1-azaspiro[3.3]heptan-1-yl}-8-oxo-5H,8H-pyrido[2,3-b]pyrazin-5-yl}acetamide], for which, in assay [1], the EC50 fell in the range of 2000 to 5000 nM. In assay [2], the IC50 lay in the range of 5 to 50 nM.

As to `CCc1c(N2CCN(C(=O)c3ncnc(C)c3O)CC2)c(=O)c2nc(OC)c(C)nc2n1CC(=O)Nc1ccc(C(F)(F)F)cc1Cl` [I-12, N-(2-chloro-4-(trifluoromethyl)phenyl)-2-(6-ethyl-7-(4-(5-hydroxy-6-methylpyrimidine-4-carbonyl)piperazin-1-yl)-2-methoxy-3-methyl-8-oxopyrido[2,3-b]pyrazin-5(8H)-yl)acetamide], the EC50 in assay [1] is over 5000 nM. Further, the IC50 in assay [2] was 5 to 50 nM.

For `CCc1c(N2CCN(C(=O)c3c(OC)ncc(C)c3O)[C@H]3CCC[C@H]32)c(=O)c2nc(N(C)C)cnc2n1CC(=O)Nc1ccc(C(F)(F)F)cc1Cl` (single isomer, unassigned) [I-252, N-(2-chloro-4-(trifluoromethyl)phenyl)-2-(2-(dimethylamino)-6-ethyl-7-(4-(4-hydroxy-2-methoxy-5-methylnicotinoyl)octahydro-1H-cyclopenta[b]pyrazin-1-yl)-8-oxopyrido[2,3-b]pyrazin-5(8H)-yl)acetamide], in assay [1], the EC50 fell in the range of 2000 to 5000 nM. Also, in assay [2], the IC50 lay in the range of 100 to 500 nM.

For `CCc1c(N2CCN(C(=O)c3c(OC)ncc(OC)c3O)[C@H]3CC[C@@H]32)c(=O)c2nc(N(C)C)cnc2n1CC(=O)Nc1ccc(C(F)(F)F)cc1Cl` [I-274], in assay [1], the EC50 was under 500 nM. The IC50 in assay [2] lay within 5 to 50 nM.

For `CCc1c(N2CCN(C(=O)c3ncnc(C)c3O)CC2)c(=O)c2nc(N3CCC34CCC4)cnc2n1CC(=O)Nc1ccc(C(F)(F)F)cc1Cl` [I-170, 2-(2-{1-azaspiro[3.3]heptan-1-yl}-6-ethyl-7-[4-(5-hydroxy-6-methylpyrimidine-4-carbonyl)piperazin-1-yl]-8-oxo-5H,8H-pyrido[2,3-b]pyrazin-5-yl)-N-[2-chloro-4-(trifluoromethyl)phenyl]acetamide], the EC50 in assay [1] was under 500 nM. Also, the IC50 in assay [2] fell in the range of 5 to 50 nM.

On to `CCc1c(N2CCN(C(=O)c3ncnc(C)c3O)C(C)(C)C2)c(=O)c2nc(N(C)C)cnc2n1CC(=O)Nc1ccc(C(F)(F)F)cc1Cl` [I-87, N-(2-chloro-4-(trifluoromethyl)phenyl)-2-(2-(dimethylamino)-6-ethyl-7-(4-(5-hydroxy-6-methylpyrimidine-4-carbonyl)-3,3-dimethylpiperazin-1-yl)-8-oxopyrido[2,3-b]pyrazin-5(8H)-yl)acetamide], for which the EC50 in assay [1] lay in the range of 500 to 2000 nM. Moreover, the IC50 in assay [2] is 5 to 50 nM.

For the molecule `CCc1c(N2CCN(C(=O)c3ncnc(C)c3O)CC2)c(=O)c2nc(C)c(C)nc2n1CC(=O)Nc1ccc(C(F)(F)F)cc1Cl` [I-64, N-(2-chloro-4-(trifluoromethyl)phenyl)-2-(6-ethyl-7-(4-(5-hydroxy-6-methylpyrimidine-4-carbonyl)piperazin-1-yl)-2,3-dimethyl-8-oxopyrido[2,3-b]pyrazin-5(8H)-yl)acetamide], the EC50 in assay [1] lay within 500 to 2000 nM. In assay [2], the IC50 lay in the range of 5 to 50 nM.

In the case of `CCc1c(N2CCN(C(=O)c3ncnc(C)c3O)CC2)c(=O)c2nc(C(F)F)cnc2n1CC(=O)Nc1ccc(C(F)(F)F)cc1Cl` [I-13, N-(2-chloro-4-(trifluoromethyl)phenyl)-2-(2-(difluoromethyl)-6-ethyl-7-(4-(5-hydroxy-6-methylpyrimidine-4-carbonyl)piperazin-1-yl)-8-oxopyrido[2,3-b]pyrazin-5(8H)-yl)acetamide], the EC50 in assay [1] was over 5000 nM. Moreover, the IC50 in assay [2] was 50 to 100 nM.

For the molecule `C=C(F)c1cnc2c(n1)c(=O)c(N1CCN(C(=O)c3ncnc(C)c3O)CC1)c(CC)n2CC(=O)Nc1ccc(C(F)(F)F)cc1Cl` [I-157, N-[2-chloro-4-(trifluoromethyl)phenyl]-2-[6-ethyl-2-(1-fluoroethenyl)-7-[4-(5-hydroxy-6-methylpyrimidine-4-carbonyl)piperazin-1-yl]-8-oxo-5H,8H-pyrido[2,3-b]pyrazin-5-yl]acetamide], in assay [1], the EC50 lay in the range of 500 to 2000 nM. In addition, the IC50 in assay [2] fell in the range of 5 to 50 nM.

In the case of `CCc1c(N2CCN(C(=O)c3ncnc(C)c3O)CC2)c(=O)c2nc(C=C3CCOCC3)cnc2n1CC(=O)Nc1ccc(C(F)(F)F)cc1Cl` [I-36, N-(2-chloro-4-(trifluoromethyl)phenyl)-2-(6-ethyl-7-(4-(5-hydroxy-6-methylpyrimidine-4-carbonyl)piperazin-1-yl)-8-oxo-2-((tetrahydro-4H-pyran-4-ylidene)methyl)pyrido[2,3-b]pyrazin-5(8H)-yl)acetamide], the EC50 in assay [1] was in the range of 2000 to 5000 nM. For the same molecule, in assay [2], the IC50 was 5 to 50 nM.

Consider `CCc1c(N2CCN(C(=O)c3c(O)ccc4[nH]ncc34)CC2)c(=O)c2ncc(C)nc2n1CC(=O)Nc1ccc(C(F)(F)F)cc1Cl` [I-76, N-(2-chloro-4-(trifluoromethyl)phenyl)-2-(6-ethyl-7-(4-(5-hydroxy-1H-indazole-4-carbonyl)piperazin-1-yl)-3-methyl-8-oxopyrido[2,3-b]pyrazin-5(8H)-yl)acetamide], for which, in assay [1], the EC50 was over 5000 nM. Moreover, the IC50 in assay [2] was 5 to 50 nM.

Consider `CCc1c(N2CCN(C(=O)c3ncnc(C)c3O)[C@H]3CC[C@@H]32)c(=O)c2nc(C)cnc2n1CC(=O)Nc1ccc(C(F)(F)F)cc1Cl` [I-262, N-[2-chloro-4-(trifluoromethyl)phenyl]-2-{6-ethyl-7-[(1S,6S)-5-(5-hydroxy-6-methylpyrimidine-4-carbonyl)-2,5-diazabicyclo[4.2.0]octan-2-yl]-2-methyl-8-oxo-5H,8H-pyrido[2,3-b]pyrazin-5-yl}acetamide], for which the EC50 in assay [1] is under 500 nM. For the same molecule, in assay [2], the IC50 lay within 5 to 50 nM.

As to `CCc1c(N2CCN(C(=O)c3ncnc(C)c3O)CC2)c(=O)c2nc(C)cnc2n1CC(=O)Nc1ccc(C(F)(F)F)cc1Cl` [I-80, N-(2-chloro-4-(trifluoromethyl)phenyl)-2-(6-ethyl-7-(4-(5-hydroxy-6-methylpyrimidine-4-carbonyl)piperazin-1-yl)-2-methyl-8-oxopyrido[2,3-b]pyrazin-5(8H)-yl)acetamide], the EC50 in assay [1] was over 5000 nM. In assay [2], the IC50 was 5 to 50 nM.

For `CCc1c(N2CCN(C(=O)c3ncnc(C)c3O)CC2)c(=O)c2nc(-c3cn[nH]c3)cnc2n1CC(=O)Nc1ccc(C(F)(F)F)cc1Cl` [I-94, N-(2-chloro-4-(trifluoromethyl)phenyl)-2-(6-ethyl-7-(4-(5-hydroxy-6-methylpyrimidine-4-carbonyl)piperazin-1-yl)-8-oxo-2-(1H-pyrazol-4-yl)pyrido[2,3-b]pyrazin-5(8H)-yl)acetamide], the EC50 in assay [1] is over 5000 nM. In addition, the IC50 in assay [2] is 5 to 50 nM.

Turning to `CCc1c(N2CCN(C(=O)c3ncnc(C)c3O)CC2)c(=O)c2nc(N3CC(F)C3)cnc2n1CC(=O)Nc1ccc(C(F)(F)F)cc1Cl` [I-164, N-[2-chloro-4-(trifluoromethyl)phenyl]-2-[6-ethyl-2-(3-fluoroazetidin-1-yl)-7-[4-(5-hydroxy-6-methylpyrimidine-4-carbonyl)piperazin-1-yl]-8-oxo-5H,8H-pyrido[2,3-b]pyrazin-5-yl]acetamide], in assay [1], the EC50 was in the range of 2000 to 5000 nM. Moreover, the IC50 in assay [2] lay in the range of 5 to 50 nM.

Take `CCc1c(N2CCN(C(=O)c3ncnc(C)c3O)CC2)c(=O)c2nc(N(C)C3CC(OC)C3)cnc2n1CC(=O)Nc1ccc(C(F)(F)F)cc1Cl` (stereo not shown) [I-60, N-(2-chloro-4-(trifluoromethyl)phenyl)-2-(6-ethyl-7-(4-(5-hydroxy-6-methylpyrimidine-4-carbonyl)piperazin-1-yl)-2-((3-methoxycyclobutyl)(methyl)amino)-8-oxopyrido[2,3-b]pyrazin-5(8H)-yl)acetamide]: in assay [1], the EC50 is 500 to 2000 nM. For the same molecule, the IC50 in assay [2] is 5 to 50 nM.

Take `CCc1c(N2CCN(C(=O)c3ncnc(C)c3O)CC2(C)C)c(=O)c2nc(N(C)C)cnc2n1CC(=O)Nc1ccc(C(F)(F)F)cc1Cl` [I-249, N-[2-chloro-4-(trifluoromethyl)phenyl]-2-[2-(dimethylamino)-6-ethyl-7-[4-(5-hydroxy-6-methylpyrimidine-4-carbonyl)-2,2-dimethylpiperazin-1-yl]-8-oxo-5H,8H-pyrido[2,3-b]pyrazin-5-yl]acetamide]: the EC50 in assay [1] is under 500 nM. In assay [2], the IC50 was in the range of 5 to 50 nM.

With `CCc1c(N2CCN(C(=O)c3ncnc(C)c3O)CC2)c(=O)c2nc(-c3ccnc(OC)c3)cnc2n1CC(=O)Nc1ccc(C(F)(F)F)cc1Cl` [I-7, N-(2-chloro-4-(trifluoromethyl)phenyl)-2-(6-ethyl-7-(4-(5-hydroxy-6-methylpyrimidine-4-carbonyl)piperazin-1-yl)-2-(2-methoxypyridin-4-yl)-8-oxopyrido[2,3-b]pyrazin-5(8H)-yl)acetamide], in assay [1], the EC50 was over 5000 nM. Also, the IC50 in assay [2] lay in the range of 5 to 50 nM.

Values taken from patent US20250034136A1 (Nimbus Wadjet, Inc., priority 2023, published 2025).
